Reference: patent US10168342B2, “Lipid probes and uses thereof” (THE SCRIPPS RESEARCH INSTITUTE, priority 2015, dated 2019)
Like-named read-outs stand apart in the source and are kept apart here.

What was measured:
[1] = biological target: AEA-DA lipid probe targets in Neuro2a cells (Mus musculus, UniProt O88545)
[2] = biological target: T1, AEA-DA lipid probe targets in Neuro2a cells (Mus musculus, UniProt P04223)
T1 sequence (P04223 22-369): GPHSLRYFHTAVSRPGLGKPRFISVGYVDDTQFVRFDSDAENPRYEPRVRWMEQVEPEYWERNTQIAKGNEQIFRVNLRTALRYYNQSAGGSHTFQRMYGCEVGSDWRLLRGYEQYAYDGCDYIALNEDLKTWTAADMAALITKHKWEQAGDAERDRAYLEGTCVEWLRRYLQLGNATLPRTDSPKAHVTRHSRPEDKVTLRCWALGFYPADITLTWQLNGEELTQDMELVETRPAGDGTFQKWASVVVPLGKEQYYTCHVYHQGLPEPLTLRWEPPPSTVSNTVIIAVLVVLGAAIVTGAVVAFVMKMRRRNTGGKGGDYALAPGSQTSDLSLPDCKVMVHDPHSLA

[3] = biological target: T2, AEA-DA lipid probe targets in Neuro2a cells (Mus musculus, UniProt Q11011)
T2 sequence (Q11011 1-920): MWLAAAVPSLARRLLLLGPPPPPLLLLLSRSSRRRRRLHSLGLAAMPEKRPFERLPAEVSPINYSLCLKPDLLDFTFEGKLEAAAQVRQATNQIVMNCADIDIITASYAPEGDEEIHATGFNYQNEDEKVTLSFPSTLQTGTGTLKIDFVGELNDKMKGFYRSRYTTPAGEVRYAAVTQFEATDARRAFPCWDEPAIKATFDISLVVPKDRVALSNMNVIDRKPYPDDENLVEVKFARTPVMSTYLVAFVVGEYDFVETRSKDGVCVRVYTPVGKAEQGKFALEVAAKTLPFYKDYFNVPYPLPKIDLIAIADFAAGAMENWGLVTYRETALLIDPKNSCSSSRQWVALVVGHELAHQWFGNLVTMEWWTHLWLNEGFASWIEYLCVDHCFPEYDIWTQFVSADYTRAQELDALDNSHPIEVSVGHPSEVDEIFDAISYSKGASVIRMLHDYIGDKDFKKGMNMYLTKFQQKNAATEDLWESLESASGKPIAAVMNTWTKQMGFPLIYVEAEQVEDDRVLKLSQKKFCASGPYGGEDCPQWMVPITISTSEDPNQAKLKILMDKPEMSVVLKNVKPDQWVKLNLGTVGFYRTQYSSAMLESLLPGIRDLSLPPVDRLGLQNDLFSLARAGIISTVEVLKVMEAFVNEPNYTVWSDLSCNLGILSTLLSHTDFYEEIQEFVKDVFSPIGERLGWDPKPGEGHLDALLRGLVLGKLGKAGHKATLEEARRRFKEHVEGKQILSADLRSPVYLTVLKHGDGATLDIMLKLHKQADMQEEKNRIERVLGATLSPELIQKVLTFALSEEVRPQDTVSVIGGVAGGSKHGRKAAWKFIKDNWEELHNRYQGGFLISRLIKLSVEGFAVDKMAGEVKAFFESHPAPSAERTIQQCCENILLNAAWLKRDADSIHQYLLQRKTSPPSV

[4] = biological target: AEA-DA lipid probe targets in Neuro2a cells (Mus musculus, UniProt Q8BVU5); conditions: protein Nudt9, Neuro2a cells
AEA-DA lipid probe targets in Neuro2a cells (Mus musculus, UniProt Q8BVU5), sequence (Q8BVU5 47-350): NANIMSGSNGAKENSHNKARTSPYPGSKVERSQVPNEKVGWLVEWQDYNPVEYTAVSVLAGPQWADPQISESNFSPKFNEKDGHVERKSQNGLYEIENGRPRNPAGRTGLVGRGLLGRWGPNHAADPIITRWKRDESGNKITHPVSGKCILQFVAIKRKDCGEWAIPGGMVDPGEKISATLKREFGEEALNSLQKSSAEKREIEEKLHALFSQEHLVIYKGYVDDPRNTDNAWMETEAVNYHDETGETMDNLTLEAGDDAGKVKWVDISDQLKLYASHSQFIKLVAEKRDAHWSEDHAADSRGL

[5] = biological target: AEA-DA lipid probe targets in Neuro2a cells (Mus musculus, UniProt Q91VM5); conditions: protein Rbmxl1, Neuro2a cells
AEA-DA lipid probe targets in Neuro2a cells (Mus musculus, UniProt Q91VM5), sequence (Q91VM5 whole entry): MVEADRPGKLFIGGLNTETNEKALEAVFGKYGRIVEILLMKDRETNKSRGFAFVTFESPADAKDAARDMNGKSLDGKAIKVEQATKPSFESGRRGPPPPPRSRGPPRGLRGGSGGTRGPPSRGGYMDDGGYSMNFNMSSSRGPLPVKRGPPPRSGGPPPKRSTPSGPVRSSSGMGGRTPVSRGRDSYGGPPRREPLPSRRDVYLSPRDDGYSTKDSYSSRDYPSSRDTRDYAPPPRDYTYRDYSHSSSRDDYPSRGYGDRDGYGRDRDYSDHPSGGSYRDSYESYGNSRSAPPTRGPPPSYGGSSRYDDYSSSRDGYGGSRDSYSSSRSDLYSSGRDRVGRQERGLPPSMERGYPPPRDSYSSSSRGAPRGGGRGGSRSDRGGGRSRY

[6] = biological target: T3, AEA-DA lipid probe targets in Neuro2a cells (Mus musculus, UniProt Q921T2)
T3 sequence (Q921T2 1-595): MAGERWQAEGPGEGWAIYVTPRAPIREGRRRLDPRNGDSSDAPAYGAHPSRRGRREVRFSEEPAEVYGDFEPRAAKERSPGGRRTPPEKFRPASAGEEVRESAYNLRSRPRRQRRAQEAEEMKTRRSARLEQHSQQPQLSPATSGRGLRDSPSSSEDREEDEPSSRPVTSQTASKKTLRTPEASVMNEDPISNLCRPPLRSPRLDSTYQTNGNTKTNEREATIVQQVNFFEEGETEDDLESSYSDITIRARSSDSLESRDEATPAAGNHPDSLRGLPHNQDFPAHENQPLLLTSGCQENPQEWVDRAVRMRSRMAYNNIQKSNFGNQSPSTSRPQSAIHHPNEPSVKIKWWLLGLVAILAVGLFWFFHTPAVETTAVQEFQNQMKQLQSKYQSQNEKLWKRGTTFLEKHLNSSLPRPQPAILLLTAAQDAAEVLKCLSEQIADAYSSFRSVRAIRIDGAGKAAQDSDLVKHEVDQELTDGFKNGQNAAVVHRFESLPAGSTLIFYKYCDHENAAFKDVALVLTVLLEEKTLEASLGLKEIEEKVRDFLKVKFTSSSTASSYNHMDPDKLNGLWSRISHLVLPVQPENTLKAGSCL

[7] = biological target: AEA-DA lipid probe targets in Neuro2a cells (Mus musculus, UniProt Q9JKC6)
AEA-DA lipid probe targets in Neuro2a cells (Mus musculus, UniProt Q9JKC6), sequence (Q9JKC6 whole entry): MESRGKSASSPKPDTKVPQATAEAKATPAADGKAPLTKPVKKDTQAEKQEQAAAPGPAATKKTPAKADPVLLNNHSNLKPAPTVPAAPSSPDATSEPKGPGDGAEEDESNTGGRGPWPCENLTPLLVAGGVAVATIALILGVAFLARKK

[8] = biological target: AEA-DA lipid probe targets in Neuro2a cells (Mus musculus, UniProt Q78IK4); conditions: protein Apool; Neuro2a cells; competitor 25 μM
AEA-DA lipid probe targets in Neuro2a cells (Mus musculus, UniProt Q78IK4), sequence (Q78IK4 28-265): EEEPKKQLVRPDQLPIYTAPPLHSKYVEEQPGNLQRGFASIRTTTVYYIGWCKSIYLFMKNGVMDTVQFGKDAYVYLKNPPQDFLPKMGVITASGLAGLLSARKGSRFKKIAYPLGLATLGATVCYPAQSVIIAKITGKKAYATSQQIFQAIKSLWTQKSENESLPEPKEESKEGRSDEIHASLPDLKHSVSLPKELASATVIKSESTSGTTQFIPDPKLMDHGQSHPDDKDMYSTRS

[9] = biological target: T4, AEA-DA lipid probe targets in Neuro2a cells (Mus musculus, UniProt Q8VCX5); conditions: protein Micu1, Neuro2a cells
T4 sequence (Q8VCX5 34-477): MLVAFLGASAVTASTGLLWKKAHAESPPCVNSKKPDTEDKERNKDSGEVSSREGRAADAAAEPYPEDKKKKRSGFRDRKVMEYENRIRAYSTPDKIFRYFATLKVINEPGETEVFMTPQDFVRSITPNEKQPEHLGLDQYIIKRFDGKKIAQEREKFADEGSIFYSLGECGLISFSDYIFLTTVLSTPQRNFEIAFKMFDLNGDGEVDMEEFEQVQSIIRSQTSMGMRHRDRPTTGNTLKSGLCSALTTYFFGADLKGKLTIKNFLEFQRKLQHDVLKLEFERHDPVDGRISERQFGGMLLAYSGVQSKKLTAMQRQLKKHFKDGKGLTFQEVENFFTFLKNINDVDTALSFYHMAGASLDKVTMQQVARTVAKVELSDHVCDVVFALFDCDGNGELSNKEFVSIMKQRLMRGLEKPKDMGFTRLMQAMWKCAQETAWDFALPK

AEA-DA lipid probe targets in Neuro2a cells (Mus musculus, UniProt O88545), sequence (O88545 whole entry): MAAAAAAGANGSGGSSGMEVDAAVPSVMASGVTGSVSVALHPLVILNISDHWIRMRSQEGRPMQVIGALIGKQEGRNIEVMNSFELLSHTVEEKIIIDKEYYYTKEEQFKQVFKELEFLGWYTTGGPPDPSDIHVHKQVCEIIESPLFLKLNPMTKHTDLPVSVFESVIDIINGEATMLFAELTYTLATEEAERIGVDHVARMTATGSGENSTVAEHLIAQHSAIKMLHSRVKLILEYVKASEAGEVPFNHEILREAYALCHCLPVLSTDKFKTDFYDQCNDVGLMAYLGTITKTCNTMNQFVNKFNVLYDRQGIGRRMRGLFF

`CCCCC/C=C\C/C=C\C/C=C\C/C=C\CCCC(=O)NCCO` [AEA, anandamide, reference compound] was tested, and the “SILAC ratio Cops6” value ([1]; competitor 200 μM) was 1.4, the “SILAC ratio H2-K1” value ([2]; competitor 200 μM) was 1.2 and the “SILAC ratio Npepps” value ([3]; competitor 200 μM) was 1.1. For the same compound, the “SILAC ratio (AEA-DA competition)” value ([4]; competitor 200 μM) was 1.0, the “SILAC ratio (AEA-DA competition)” value ([5]; competitor 200 μM) was 1.0 and the “SILAC ratio Tor1aip1” value ([6]; competitor 200 μM) was 1.5. For the same compound, the “SILAC ratio Cend1” value ([7]; competitor 200 μM) was 1.7.
`CN1CCN(C(=O)c2c(-c3ccccc3)c3cc([N+](=O)[O-])ccc3n2C)CC1` [KML110, (1-Methyl-5-nitro-3-phenyl-1H-indol-2-yl)(4-methylpiperazin-1-yl)methanone] was tested, and the “SILAC ratio (AEA-DA competition)” value [8] was 1.0, the “SILAC ratio (AEA-DA competition)” value ([4]; competitor 25 μM) was 1.9 and the “SILAC ratio Cend1” value ([7]; competitor 25 μM) was 0.9.
`CN1CCN(C(=O)c2[nH]c3ccc([N+](=O)[O-])cc3c2-c2ccccc2)CC1` [MJN228, (4-Methylpiperazin-1-yl)(5-nitro-3-phenyl-1H-indol-2-yl)methanone] was tested, and the “SILAC ratio Cops6” value ([1]; competitor 100 μM) was 1.2, the “SILAC ratio H2-K1” value ([2]; competitor 10 μM) was 1.0 and the “SILAC ratio H2-K1” value ([2]; competitor 50 μM) was 0.9. For the same compound, the “SILAC ratio H2-K1” value ([2]; competitor 100 μM) was 1.0, the “SILAC ratio Npepps” value ([3]; competitor 25 μM) was 1.5 and the “SILAC ratio Npepps” value ([3]; competitor 100 μM) was 4.3. The “SILAC ratio (AEA-DA competition)” value ([9]; competitor 10 μM) was 1.2, the “SILAC ratio (AEA-DA competition)” value ([9]; competitor 25 μM) was 1.5 and the “SILAC ratio (AEA-DA competition)” value ([5]; competitor 10 μM) was 1.1. The “SILAC ratio (AEA-DA competition)” value ([5]; competitor 25 μM) was 1.2, the “SILAC ratio (AEA-DA competition)” value ([5]; competitor 100 μM) was 1.3 and the “SILAC ratio Tor1aip1” value ([6]; competitor 10 μM) was 1.3. The “SILAC ratio Tor1aip1” value ([6]; competitor 25 μM) was 1.3, the “SILAC ratio Tor1aip1” value ([6]; competitor 50 μM) was 1.3 and the “SILAC ratio Tor1aip1” value ([6]; competitor 100 μM) was 2.0.
`C=CCN(C)CCCCCCOc1ccc(C(=O)c2ccc(Br)cc2)c(F)c1` [Ro 48-8071, reference compound] was tested, and the “SILAC ratio (AEA-DA competition)” value [8] was 0.9 and the “SILAC ratio (AEA-DA competition)” value ([9]; competitor 25 μM) was 0.9.
